Results as given in patent publication US5668182A, “Method of calming or sedating an animal with a hydroxy benzaldehyde compound” (priority 1996, dated 1997).
Like-named read-outs stand apart in the source and are kept apart here.

Columns and labels:
[1] = tested on: mice; test: Electroshock-induced seizures in mice (Example 5); type: in vivo; details: vanillin 300 mg/kg i.p.
Procedure: (§1) Mice were treated with vanillin (100, 200, or 300 mg/kg) or saline (0.9% NaCl) by i.p. injection. The treatment was followed either by injection of pentylenetetrazol ("Metrazol"), 80 or 90 mg/kg by i.p. injection (given 5 minutes after vanillin) or by exposure to a 1-second pulse of shock through electrodes clamped to the ears (5 minutes after vanillin). The end-points for both tests were the occurrence of a tonic (extensor) convulsion and/or death. Six mice were used per group for the Metrazol-induced seizure test, and five mice were used per group for the electroshock-induced seizure test.

[2] = tested on: mice; test: Metrazol-induced seizures in mice (Example 5); type: in vivo; details: for Death: Metrazol 90 mg/kg i.p. (vehicle 0/6); for Tonic Convulsion: Metrazol 90 mg/kg i.p. (vehicle 6/6)
Procedure: as §1

[3] = tested on: mice; test: Inverted screen test in mice (Example 4); type: in vivo; details: for ED50: Mus musculus, ip
Procedure: An inverted screen test was performed on mice to investigate the effect of vanillin and vanillin analogs on muscular function. After i.p. injection of vanillin or vehicle, each mouse was placed on a wire screen (12.8 cm×12.8 cm with a 6 mm mesh size) and the screen was inverted. A positive effect was found if the drug caused the mouse to fall from the screen within 60 seconds. A negative effect was found if the mouse had the ability to climb from the underside of the screen to the top side of the screen within the 60 second time period. Hanging from the underside of the screen without falling but without climbing to the topside at 60 seconds is recorded as a one-half positive effect per the convention of Coughenour, L. L.; Mclean, J. R.; Parker, R. B., "A New Device for the Rapid Measurement of Impaired Motor Function in Mice," Pharmacol. Biochem. Behav., 6: 351-353; 1977. The test was performed at 2, 5, 10, and 30 minutes following administration of vanillin or vehicle. At each of those times, an ED-50 (and 95% confidence limits) was determined for vanillin. Six mice were used in each experimental group.
Several analogs of vanillin were also examined in this test. The chemical structures and chemical names for these compounds are described hereinabove.
The testing of these compounds was limited both by supply of compound and by solubility. Testing was performed at 2, 5, 10, 20 minutes after administration of drug or vehicle. The vehicles used to solubilize the analogs were as follows: 10% ethanol for TBJ1, TBJ2, and TBJ3; 3% ammonium hydroxide solution in saline for FSA (pH=9); 6.7% ammonium hydroxide in saline for TB17 (pH=9.3); and 20% ethanol, 1% ammonium hydroxide solution in saline for TB34 (pH=10.0). ED-50s of compounds (and 95% confidence limits) were calculated in cases where the data permitted the calculation.

[4] = tested on: mice; test: Spontaneous locomotor activity of mice (Example 3); type: in vivo
Procedure: The effect of vanillin on spontaneous locomotor activity of mice was examined. Three groups of male mice, with four mice per group, were assigned to receive a dosage of vanillin of 0, 200 or 300 mg/kg, respectively. After i.p. injection of vanillin or a control solution (0.9% NaCl in water), an injected mouse was placed by itself in a cage, the cage enclosed in a cabinet to exclude external stimuli, and locomotor activity of the mouse was monitored. Three types of movements of the mouse within the cage were measured, based upon interruptions of 16 beams of infrared light, spaced one inch (2.54 cm) apart, which traverse the cage. Interruptions of the infrared beams are detected by sensors and are recorded as "counts" of activity using a system obtained from Omnitech Electronics, Columbus Ohio.
Three types of activity measures were automatically recorded by the system: (1) all interruptions of all beams were recorded as "Total activity counts"; (2) interruptions of two consecutive beams were recorded as "Ambulatory activity counts"; and (3) interruptions of four consecutive beams were recorded as "Gross movements".
The effects of doses of vanillin (200 and 300 mg/kg i.p.) was assessed and compared with locomotor activity recorded for concomitantly tested mice given only vehicle (0.9% NaCl in water). Measurement of locomotor activity was made during 10 minute intervals for 60 minutes after treatment. Due to the relatively short duration of vanillin encountered, the higher dose group also had measurements taken at three minute intervals for 24 minutes and at one minute intervals for nine minutes after treatment.
Means and standard errors of numbers of counts were determined for each experimental group.

[5] = tested on: man; details: in man; cited from earlier work
[6] = tested on: rats; details: cited from earlier work

## COc1cc(C=O)ccc1O [vanillin, 4-hydroxy-3-methoxybenzaldehyde]
[1]; 1-second electroshock (vehicle 1/5)
  Death: 0/5
[1]; 1-second electroshock (vehicle 5/5)
  Tonic Convulsion: 4/5
[2]; 300 mg/kg
  protection versus Metrazol-induced seizures: some protection
[2]; particularly at higher doses, data of Table 5
  anticonvulsant activity: some mild anticonvulsant activity
[2]; vanillin 200 mg/kg i.p.
  Death: 2/6
  Tonic Convulsion: 5/6
[2]; vanillin 300 mg/kg i.p.
  Death: 0/6
  Tonic Convulsion: 1/6
[3]; 2 min, 2 min post-treatment, read-out: ED-50 (95% confidence limits)
  ED50: 112 mg/kg
[3]; 5 min, 5 min post-treatment, read-out: ED-50 (95% confidence limits)
  ED50: 104 mg/kg
[3]; 10 min, 10 min post-treatment, read-out: ED-50 (95% confidence limits)
  ED50: 112 mg/kg
[3]; 10 min, first 10 minutes after injection, read-out: ED-50
  ED50: ~100 mg/kg
[3]; 0.5 h, 30 min post-treatment, read-out: ED-50 (95% confidence limits)
  ED50: 748 mg/kg
[3]; between 10 and 30 minutes after injection
  change of potency with time: declined precipitously
[4]; 200 mg/kg i.p., 0-10 min (control 83 ± 16)
  Gross movements: 86 ± 16 counts
[4]; 200 mg/kg i.p., 0-10 min (control 739 ± 108)
  Ambulatory activity counts: 545 ± 62 counts
[4]; 200 mg/kg i.p., 0-10 min (control 1525 ± 281)
  Total activity counts: 897 ± 201 counts
[4]; 200 mg/kg i.p., 10-20 min (control 41 ± 8)
  Gross movements: 43 ± 8 counts
[4]; 200 mg/kg i.p., 10-20 min (control 461 ± 68)
  Ambulatory activity counts: 291 ± 37 counts
[4]; 200 mg/kg i.p., 20-30 min (control 34 ± 13)
  Gross movements: 18 ± 13 counts
[4]; 200 mg/kg i.p., 20-30 min (control 307 ± 76)
  Ambulatory activity counts: 130 ± 85 counts
[4]; 200 mg/kg i.p., 20-30 min (control 582 ± 126)
  Total activity counts: 481 ± 257 counts
[4]; 200 mg/kg i.p., 30-40 min (control 31 ± 11)
  Gross movements: 14 ± 11 counts
[4]; 200 mg/kg i.p., 30-40 min (control 599 ± 224)
  Ambulatory activity counts: 409 ± 276 counts
[4]; 200 mg/kg i.p., 30-40 min (control 635 ± 204)
  Total activity counts: 410 ± 275 counts
[4]; 200 mg/kg i.p., 40-50 min (control 19 ± 14)
  Gross movements: 32 ± 13 counts
[4]; 200 mg/kg i.p., 40-50 min (control 171 ± 103)
  Ambulatory activity counts: 243 ± 67 counts
[4]; 200 mg/kg i.p., 40-50 min (control 268 ± 167)
  Total activity counts: 413 ± 115 counts
[4]; 200 mg/kg i.p., 50-60 min (control 23 ± 8)
  Gross movements: 31 ± 8 counts
[4]; 300 mg/kg i.p., 0-10 min (control 83 ± 16)
  Gross movements: 75 ± 23 counts
[4]; 300 mg/kg i.p., 0-10 min (control 739 ± 108)
  Ambulatory activity counts: 479 ± 150 counts
[4]; 300 mg/kg i.p., 10-20 min (control 41 ± 8)
  Gross movements: 57 ± 19 counts
[4]; 300 mg/kg i.p., 10-20 min (control 461 ± 68)
  Ambulatory activity counts: 298 ± 117 counts
[4]; 300 mg/kg i.p., 10-20 min (control 832 ± 105)
  Total activity counts: 449 ± 155 counts
[4]; 300 mg/kg i.p., 20-30 min (control 34 ± 13)
  Gross movements: 37 ± 16 counts
[4]; 300 mg/kg i.p., 20-30 min (control 307 ± 76)
  Ambulatory activity counts: 245 ± 100 counts
[4]; 300 mg/kg i.p., 20-30 min (control 582 ± 126)
  Total activity counts: 404 ± 176 counts
[4]; 300 mg/kg i.p., 30-40 min (control 31 ± 11)
  Gross movements: 38 ± 10 counts
[4]; 300 mg/kg i.p., 30-40 min (control 599 ± 224)
  Ambulatory activity counts: 270 ± 74 counts
[4]; 300 mg/kg i.p., 30-40 min (control 635 ± 204)
  Total activity counts: 441 ± 121 counts
[4]; 300 mg/kg i.p., 40-50 min (control 19 ± 14)
  Gross movements: 21 ± 8 counts
[4]; 300 mg/kg i.p., 40-50 min (control 171 ± 103)
  Ambulatory activity counts: 244 ± 66 counts
[4]; 300 mg/kg i.p., 40-50 min (control 268 ± 167)
  Total activity counts: 365 ± 108 counts
[4]; 300 mg/kg i.p., 50-60 min (control 23 ± 8)
  Gross movements: 12 ± 7 counts
[4]; 200 and 300 mg/kg i.p.
  effect on smaller types of motor movements: suppressed
[4]; any time, doses up to 300 mg/kg
  effect on gross movements, such as walking: not significantly affected
[4]; i.p.
  persistence of some effect on locomotor activity: ≥ 60 min
[5]
  metabolism and excretion: converted to vanillic acid in the liver and is excreted in the urine
[6]
  oral LD50: 1580 mg/kg
